This is an account of results in PubChem BioAssay (NCI).

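Step 1: Grow cells in 96-well plates. Step 2: Expose to compound for 48 hours at 5 concentrations. Step 3: Interpolate endpoints linearly; if unreached, use highest concentration. TGI denotes the concentration required for complete inhibition of growth.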 Where only a bound is given, the exact number is not on record here.

Experiment in all cases: NCI-60 cell line screen, 48 h
Experiment [1] deals with HCT-15 colon.
The subject of experiment [2] is COLO 205 colon.
Experiment [3] deals with EKVX NSCLC.
Experiment [4] concerns HS 578T breast.
In experiment [5] the test system is OVCAR-3 ovarian.
For experiment [6], the system named is OVCAR-4 ovarian.
The subject of experiment [7] is HL-60(TB) leukemia.
Experiment [8] deals with HCC-2998 colon.
For experiment [9], the system named is SR leukemia.
Experiment [10] deals with M14 melanoma.
The subject of experiment [11] is 786-0 renal.
Experiment [12] relates to SN12C renal.
For experiment [13], the system named is K-562 leukemia.
Experiment [14] relates to UACC-62 melanoma.
Experiment [15] concerns OVCAR-8 ovarian.
The test system of experiment [16] is SK-OV-3 ovarian.
For experiment [17], the system named is LOX IMVI melanoma.
The subject of experiment [18] is TK-10 renal.
Experiment [19] concerns T-47D breast.
In experiment [20] the test system is HT29 colon.

As for `C=C(C)[C@H]1C[C@@H]2O[C@@](O)(/C(C)=C\C(=O)/C=C(/C)C[C@H]3OC(=O)[C@@]24O[C@H]34)[C@@H]1O`, the TGI in experiment [1], in [2], in experiment [3], in [4], in experiment [5] and in experiment [6] was above 100 µM each time. The TGI in experiment [7], in experiment [8], in experiment [9], in [10], in experiment [11] and in [12] was above 100 µM each time. Further, the TGI in experiment [13], in [14], in experiment [15], in experiment [16], in [17] and in experiment [18] was above 100 µM throughout. Moreover, the TGI in experiment [19] and in experiment [20] was above 100 µM each time.

Regarding `COc1cc(C2S/C(=C/c3ccccc3)C(=O)N2c2cc(Cl)c(Cl)cc2Cl)cc(OC)c1OC` (stereo not drawn), the TGI is above 100 µM in [1]; above 100 µM in experiment [2]; above 88.6 µM in [3]; above 57 µM in experiment [4]; above 100 µM in [5]; above 100 µM in experiment [6]. The TGI in [7] was above 77.2 µM; in [8] it was above 100 µM; in experiment [9], above 69.4 µM; in experiment [10] it was above 100 µM; in experiment [11], above 100 µM; in [12], above 100 µM. The TGI was above 78.3 µM in experiment [13]; above 100 µM in [14]; above 100 µM in experiment [15]; above 100 µM in experiment [16]; above 79.3 µM in experiment [17]; above 100 µM in experiment [18]. The TGI in [19] and in [20] was above 100 µM throughout.

For the compound `CNC(=O)C1CCCN1C(=O)C(Cc1cnc[nH]1)NC(=O)C1CCC(=O)N1` (stereo not drawn), the TGI in experiment [1], in [2], in experiment [3], in experiment [4], in [5] and in experiment [6] was above 100 µM in each case. In addition, the TGI in experiment [7], in experiment [8], in [9], in experiment [10], in [11] and in experiment [12] was above 100 µM throughout. Also, the TGI in experiment [13], in experiment [14], in [15], in experiment [16], in experiment [17] and in [18] was above 100 µM throughout. Besides, the TGI in experiment [19] and in experiment [20] was above 100 µM throughout.

Take `C[C@@H](CO)C1=CC(C#C[Si](C)(C)C)N(C(=O)Oc2ccccc2)c2ccccc21` (stereo partly drawn): the TGI in experiment [1] is 21.7 µM; in experiment [2], above 100 µM; in experiment [3], 53.7 µM; in [4], 47 µM; in experiment [5], 26.9 µM; in [6], 27 µM. For the same compound, the TGI is 57.2 µM in experiment [7]; 29.9 µM in experiment [8]; above 100 µM in experiment [9]; 35.6 µM in experiment [10]; 31.8 µM in experiment [11]; 30.9 µM in experiment [12]. In addition, the TGI in experiment [13] came to 95.5 µM; in [14], 21.9 µM; in experiment [15], 35 µM; in [16], 56.3 µM; in [17] it was 32.4 µM; in experiment [18], 79.5 µM. The values for the TGI in experiment [19] and in experiment [20] were 51.1 µM and 35.2 µM, respectively.

As for `CC1=NN(C(=O)CC(=O)Nc2cccc(C)c2)C(=O)C1N=Nc1ccc(S(=O)(=O)c2ccc(N=NC3C(=O)N(C(=O)CC(=O)Nc4cccc(C)c4)N=C3C)cc2)cc1` (stereo not drawn), the TGI in [1], in experiment [2], in [3], in [4], in experiment [5] and in [6] was above 100 µM throughout. Besides, the TGI in [7], in experiment [8], in experiment [9], in [10], in experiment [11] and in experiment [12] was above 100 µM in each case. In addition, the TGI in [13], in [14], in [15], in [16], in [17] and in experiment [18] was above 100 µM each time. In addition, the TGI in experiment [19] and in [20] was above 100 µM throughout.

For `CCOC(=O)c1[nH]cc(C)c1-c1c[nH]c2ccccc12`, the TGI in experiment [1] was above 100 µM; in experiment [2], 58.9 µM; in experiment [3], above 100 µM; in experiment [4] it was 61.7 µM; in [5], above 76.8 µM; in [6], above 100 µM. Besides, the TGI in [7] was above 100 µM; in [8] it was above 100 µM; in [9] it was above 39.4 µM; in experiment [10], above 100 µM; in [11] it was above 100 µM; in experiment [12], above 100 µM. Further, the TGI was above 80.4 µM in [13]; above 100 µM in [14]; above 100 µM in [15]; above 100 µM in experiment [16]; 40.2 µM in experiment [17]; above 80.3 µM in [18]. In addition, the figures for the TGI in experiment [19] and in [20] were above 100 µM and above 82.6 µM, respectively.

`Cn1c(=O)cc(N=Nc2ccc(Cl)c(Cl)c2)[nH]c1=O`: the TGI in experiment [1] amounted to 38.9 µM; in experiment [2] it was 60.5 µM; in experiment [3] it was 51.4 µM; in experiment [4], 94 µM; in experiment [5], 33.2 µM; in experiment [6], 61.7 µM. Also, the TGI in [7] is 50.7 µM; in [8] it was above 100 µM; in experiment [9], 54 µM; in [10], 47.7 µM; in experiment [11], 31.9 µM; in experiment [12] it was above 100 µM. The TGI was 55.9 µM in experiment [13]; above 100 µM in experiment [14]; 53 µM in experiment [15]; above 100 µM in experiment [16]; 34.3 µM in experiment [17]; 47.9 µM in experiment [18]. Also, the TGI in [19] was above 100 µM; in experiment [20], 38.6 µM.

On to `COc1ccc2oc(=O)c(-c3nc4ccccc4o3)cc2c1`, for which the TGI in experiment [1], in experiment [2], in experiment [3], in experiment [4], in [5] and in experiment [6] was above 100 µM in each case. For the same compound, the TGI was above 100 µM in experiment [7]; above 100 µM in experiment [8]; 49.7 µM in experiment [9]; above 100 µM in experiment [10]; above 100 µM in experiment [11]; above 100 µM in experiment [12]. Moreover, the TGI in experiment [13], in experiment [14], in [15], in experiment [16], in experiment [17] and in [18] was above 100 µM each time. Further, the TGI in [19] and in experiment [20] was above 100 µM each time.

For `CCCC(=O)NC(C(=O)OCC)(N1CCOCC1)C(F)(F)F` (stereo not drawn), the TGI in [1], in experiment [2], in [3], in experiment [4], in [5] and in [6] was above 100 µM in each case. Besides, the TGI in experiment [7], in experiment [8], in experiment [9], in experiment [10], in experiment [11] and in experiment [12] was above 100 µM in each case. Besides, the TGI in experiment [13], in experiment [14], in experiment [15], in experiment [16], in [17] and in experiment [18] was above 100 µM each time. Also, the TGI in [19] and in experiment [20] was above 100 µM throughout.

Consider `NC(=NCCN1CCCCCCC1)NO`, for which the TGI in [1], in experiment [2], in [3], in experiment [4], in [5] and in [6] was above 100 µM throughout. In addition, the TGI in experiment [7], in experiment [8], in experiment [9], in [10], in experiment [11] and in [12] was above 100 µM in each case. Moreover, the TGI in experiment [13], in [14], in [15], in experiment [16], in experiment [17] and in experiment [18] was above 100 µM throughout. Moreover, the TGI in experiment [19] and in [20] was above 100 µM each time.

In the case of `COc1cc([C@H]2CC(=O)C[C@@H](c3cc(OC)c(OC)c(OC)c3)C23C(=O)c2ccccc2C3=O)cc(OC)c1OC`, the TGI in [1], in experiment [2], in [3], in [4], in [5] and in experiment [6] was above 100 µM throughout. Besides, the TGI in experiment [7], in experiment [8], in experiment [9], in experiment [10], in experiment [11] and in experiment [12] was above 100 µM each time. The TGI in experiment [13], in experiment [14], in [15], in experiment [16], in experiment [17] and in experiment [18] was above 100 µM in each case. Also, the TGI in [19] and in experiment [20] was above 100 µM each time.

`CNCCCNC1(c2cc3ccccc3s2)CCCCC1`: the TGI in [1] was found to be 21.7 µM; in experiment [2], 3.8 µM; in [3], 26.4 µM; in [4], 29.1 µM; in experiment [5], 25.4 µM; in [6] it was 27 µM. The TGI in experiment [7] was determined as 18.9 µM; in [8] it was 2.61 µM; in experiment [9] it was 3.44 µM; in [10], 8.06 µM; in [11] it was 9.87 µM; in experiment [12] it was 18.4 µM. Moreover, the TGI in experiment [13] amounted to 4.11 µM; in experiment [14] it was 3.87 µM; in [15], 28.4 µM; in experiment [16], 29.1 µM; in [17] it was 9.94 µM; in experiment [18] it was 19.4 µM. The results for the TGI in experiment [19] and in experiment [20] were 11.9 µM and 7.94 µM, respectively.

On to `Clc1ccc(C2=C(c3ccccc3)C(c3ccc(Cl)cc3)N3C(=N[C@H]4CCCC[C@@H]43)N2)cc1` (stereo partly drawn), for which the TGI in experiment [1] stood at 18.8 µM; in experiment [2] it was 19.4 µM; in experiment [3] it was 24.8 µM; in experiment [4], 49.5 µM; in experiment [5], 26.7 µM; in [6], 21.4 µM. Moreover, the TGI in experiment [7] amounted to 10.9 µM; in experiment [8], 10.4 µM; in [9], 5.56 µM; in [10], 24.8 µM; in [11] it was 27.8 µM; in experiment [13] it was 7.98 µM. For the same compound, the TGI was determined as 31.4 µM in experiment [14]; 29.5 µM in [15]; 30.8 µM in experiment [16]; 25.4 µM in [17]; 22.3 µM in [18]; 31.4 µM in experiment [19]. This compound also came in with a TGI in [20] of 11.7 µM.

In the case of `C[C@]12CC[C@H]3[C@@H](CCC4=CC(=O)CC[C@@]43C)[C@@H]1CC[C@@H]2C(=O)Nc1ccc([N+](=O)[O-])c(C(F)(F)F)c1`, the TGI came to 25.7 µM in experiment [1]; 36.7 µM in experiment [2]; 27.8 µM in experiment [3]; 38.4 µM in experiment [4]; 60 µM in [5]; 34.9 µM in experiment [6]. The TGI was above 100 µM in [7]; 26.4 µM in experiment [8]; 87.4 µM in experiment [9]; 31.2 µM in experiment [11]; 41 µM in experiment [12]; 73.7 µM in [13]. The TGI is 31.9 µM in experiment [14]; 90.9 µM in experiment [15]; 25.4 µM in experiment [16]; 30.5 µM in experiment [17]; 35.3 µM in experiment [18]; 37.8 µM in [19]. For the same compound, in [20], the TGI amounted to 32.1 µM.
